Tests used:
Iodine content of salt = type: physicochemical
Rat (100 g) = assay: LD50 rat, intravenous injection; type: in vivo; conditions: solution 300 mg iodine/ml, injection rate 2 ml/min
Procedure: (§1) LD50 on mice and rats was determined after intravenous injection of
(§2) the solutions containing 300 mg iodine/ml with an injection rate of 2

[1] = Molarity (and thus osmotic pressure) of solution with 300 mg iodine; type: physicochemical; conditions: 300 mg iodine/ml
Mouse (20 g) = assay: LD50 mouse, intravenous injection; type: in vivo; conditions: solution 300 mg iodine/ml, injection rate 2 ml/min
Procedure: as §1, §2

[2] = Viscosity of solution with 300 mg iodine/ml, 37° C.; type: physicochemical

Compound | Iodine content of salt (Iodine content of salt) | LD50 Rat (100 g) g iodine/kg (Rat (100 g)) | Molarity of solution with 300 mg iodine [1] | LD50 Mouse (20 g) g iodine/kg (Mouse (20 g)) | Viscosity of solution with 300 mg iodine/ml, 37° C. in centipoises [2]
NCC(=O)Nc1c(I)c(C(=O)NCCO)c(I)c(C(=O)NCCO)c1I [A-Iothalamate, 5-aminoacetamido-2,4,6-triiodoisophthalic acid bis(2-hydroxyethyl)amide iothalamate] | 58% | ≥ 10 g iodine/kg | 0.394 mol/L | ≥ 10.5 g iodine/kg | 2.4 centipoises
CN(CC(O)CO)C(=O)c1c(I)c(NC(=O)CN)c(I)c(C(=O)N(C)CC(O)CO)c1I (centres unmarked) [B-Amidotrizoate, 5-amidoacetamido-2,4,6-isophthalic acid bis(N-methyl-2,3-dihydroxypropyl) diamide amidotrizoate] | 54% | ≥ 10 g iodine/kg | 0.394 mol/L | – | 3.5 centipoises
CC(=O)Nc1c(I)c(NC(C)=O)c(I)c(C(=O)O)c1I [Megl. Amidotrizoate] | 47% | 7.5 g iodine/kg | 0.787 mol/L | – | 5.0 centipoises
CNC(=O)c1c(I)c(NC(C)=O)c(I)c(C(=O)O)c1I [Megl. Iothalamate] | 47% | 7.4 g iodine/kg | 0.787 mol/L | 4.5 g iodine/kg | 5.2 centipoises
CNC(=O)c1c(I)c(NC(C)=O)c(I)c(C(=O)O)c1I [Na-Iothalamate] | 60% | 7.0 g iodine/kg | 0.787 mol/L | 8.0 g iodine/kg | 2.7 centipoises
